The text below walks through data of patent US20170340636A1, “COMPOSITIONS AND METHODS FOR INHIBITION OF AUTOPHAGY” (Board of Regents, The University of Texas System, priority 2016, published 2017).

For experiment [1], the target named is T1, TAOK2 (Rattus norvegicus, UniProt Q9JLS3).
T1 construct: made in house
T1 sequence (Q9JLS3 1-320 limits assumed): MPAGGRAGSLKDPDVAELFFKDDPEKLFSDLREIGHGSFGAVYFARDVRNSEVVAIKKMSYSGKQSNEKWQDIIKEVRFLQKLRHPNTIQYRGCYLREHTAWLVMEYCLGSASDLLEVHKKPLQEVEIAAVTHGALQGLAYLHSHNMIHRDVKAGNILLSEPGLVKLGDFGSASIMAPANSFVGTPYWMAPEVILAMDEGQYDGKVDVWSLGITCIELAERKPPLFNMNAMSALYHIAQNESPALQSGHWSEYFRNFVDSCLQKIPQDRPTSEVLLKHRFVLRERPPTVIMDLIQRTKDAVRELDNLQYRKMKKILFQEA
As to the kind of experiment: Kinase-Glo high-throughput screen / re-screen of TAOK2 activity (MBP substrate). The experiment is classed as biochemical. Conditions: estimate from HTS re-screen at 1, 3.3 and 10 μM. Here is the method: TAOK2 activity was screened in a high-throughput fashion using Kinase-Glo (Promega). A 20 μL, solution of 50 mM HEPES pH 7.4, 50 mM MgCl2, 1.27 mg/ml MBP and 0.005 mg/ml TAOK2 was added to each well of a 384 well Corning plate using a Biotek MultiFlo dispenser. 0.2 μl of compound (columns 3 to 22, 50 μM), DMSO negative control (columns 2, 23, and 24), or staurosporine positive control (column 1, 43.4 μM) were then added to each well with a Biomek Liquid handler. 10 μl of 50 μg/ml ATP solution was added to each well with a Labsystems Multidrop384. The plates were incubated at RT for 100 minutes. 20 μl Kinase Glo (Promega) was added to each well, and allowed to incubate for 10minutes under agitation. Luminescence was read on an Envision Multilabel plate reader.
After cherry picking primary hits, the selected compounds were assayed in a limited dose-response format (10, 3.3, and 1 μM) in triplicate using the primary enzymatic assay for TAOK2. The data for each assay well was normalized to the neutral controls. The normalized activity values (replicates) for each compound in each assay were then condensed to a single value (condensed activity) using the “Robust Condensing” method in Genedata Screener®. The condensed activity is the most representative single value of the triplicates. In general, the triplicates were pre-condensed into a pair of values as follows:
In order to study the relationship between TAOK2 and both cancer and autophagy, a high-throughput screen was performed using a 200,000 compound library to discover novel small-molecule kinase inhibitors (FIG. 1A-D). Phosphorylation reactions were performed in a 384 well format against the generic kinase substrate Myelin Basic Protein (MBP) with the addition of compound. Kinase-Glo (Promega) was then added to each well to detect remaining ATP concentration. Thus, inhibitory compounds would decrease TAOK2 activity, which would increase both remaining ATP concentration and luminescence in those wells.
After the initial screen, 1645 compounds were identified with inhibition greater than three σ above the mean DMSO control (FIG. 1A). The Z′ factor of the initial screen across all plates was 0.77, indicating high significance (FIG. 1B). These compounds were then re-screened in triplicate under the same conditions, with the compounds being assayed at three concentrations (1 μM, 3.3 μM, and 10 μM, FIG. 1C, D). 432 compounds were identified after the re-screen with average inhibitions greater than 10 sigma at the 10 μM concentration. The Z′ factor of the confirmation screen was 0.52, again indicating high significance.

Experiment [2] concerns the target T1, TAOK2. As to the kind of experiment: Differential scanning fluorimetry (DSF) binding assay against TAOK2. Conditions: DSF melt temperature shift of TAOK2, 5 μM TAOK2, compound 1 μM. Here is the method:
(§1) Differential scanning fluorimetry binding assays of selected compounds against TAOK2 were conducted to measure strength of compound binding. A solution of 5 μM TAOK2, 50 mM MgCl2, 50 mM HEPES pH 7.5, and 2.5x SyproOrange(Life Technologies) was made. Compound was added to a final concentration of 1 μM. 25 μl of the reaction solution was added to the wells of a Biorad Multiplate 96 wellclear PCR plate. The plate was covered with a Biorad Microseal ‘B’ seal. Plates were read in a Biorad CFX96 Real-Time PCR system. The temperature was increased from 4° C. to 80° C., with fluorescence measurements being taken every 0.5° C. in the 6-FAM Fluorescein channel. The fluorescence response to heat curve was fit to a binding isotherm in order to determine the inflection point, which was taken as the melt temperature (Tm).
The prevalence of multiple heterocycles in the compounds is reflective of the composition of the screen (described in Methods in Supplemental Material). These 13 compounds were purchased from Chembridge Inc. and ChemDiv Inc. for measurement of direct binding using Differential Scanning Fluorimetry (DSF). DSF measures protein melt temperature (Tm) with a lipophilic dye (SyproOrange). As the temperature of the solution is increased, measurements of dye fluorescence are taken. When the protein begins to denature, hydrophobic regions in the protein are exposed, and the dye is able to bind. This binding insulates the dye from the surrounding water, reducing quenching effects and allowing fluorescence. Binding of small molecules to protein has a stabilizing effect, and this is seen by an increase in melt temperature (Table 1). The ΔTm values ranged from 3.0 to −0.6° C. The three compounds with the highest positive shifts were SW034538, SW163112, and SW083688, with 3° C., 2.2° C., and 2° C. shifts, respectively.
A general note: DSF heats the sample and reads unfolding from a dye or from intrinsic fluorescence.

The target of a further experiment is T2, ASK1 (Homo sapiens, UniProt Q99683).
T2 sequence (Q99683 1-1374): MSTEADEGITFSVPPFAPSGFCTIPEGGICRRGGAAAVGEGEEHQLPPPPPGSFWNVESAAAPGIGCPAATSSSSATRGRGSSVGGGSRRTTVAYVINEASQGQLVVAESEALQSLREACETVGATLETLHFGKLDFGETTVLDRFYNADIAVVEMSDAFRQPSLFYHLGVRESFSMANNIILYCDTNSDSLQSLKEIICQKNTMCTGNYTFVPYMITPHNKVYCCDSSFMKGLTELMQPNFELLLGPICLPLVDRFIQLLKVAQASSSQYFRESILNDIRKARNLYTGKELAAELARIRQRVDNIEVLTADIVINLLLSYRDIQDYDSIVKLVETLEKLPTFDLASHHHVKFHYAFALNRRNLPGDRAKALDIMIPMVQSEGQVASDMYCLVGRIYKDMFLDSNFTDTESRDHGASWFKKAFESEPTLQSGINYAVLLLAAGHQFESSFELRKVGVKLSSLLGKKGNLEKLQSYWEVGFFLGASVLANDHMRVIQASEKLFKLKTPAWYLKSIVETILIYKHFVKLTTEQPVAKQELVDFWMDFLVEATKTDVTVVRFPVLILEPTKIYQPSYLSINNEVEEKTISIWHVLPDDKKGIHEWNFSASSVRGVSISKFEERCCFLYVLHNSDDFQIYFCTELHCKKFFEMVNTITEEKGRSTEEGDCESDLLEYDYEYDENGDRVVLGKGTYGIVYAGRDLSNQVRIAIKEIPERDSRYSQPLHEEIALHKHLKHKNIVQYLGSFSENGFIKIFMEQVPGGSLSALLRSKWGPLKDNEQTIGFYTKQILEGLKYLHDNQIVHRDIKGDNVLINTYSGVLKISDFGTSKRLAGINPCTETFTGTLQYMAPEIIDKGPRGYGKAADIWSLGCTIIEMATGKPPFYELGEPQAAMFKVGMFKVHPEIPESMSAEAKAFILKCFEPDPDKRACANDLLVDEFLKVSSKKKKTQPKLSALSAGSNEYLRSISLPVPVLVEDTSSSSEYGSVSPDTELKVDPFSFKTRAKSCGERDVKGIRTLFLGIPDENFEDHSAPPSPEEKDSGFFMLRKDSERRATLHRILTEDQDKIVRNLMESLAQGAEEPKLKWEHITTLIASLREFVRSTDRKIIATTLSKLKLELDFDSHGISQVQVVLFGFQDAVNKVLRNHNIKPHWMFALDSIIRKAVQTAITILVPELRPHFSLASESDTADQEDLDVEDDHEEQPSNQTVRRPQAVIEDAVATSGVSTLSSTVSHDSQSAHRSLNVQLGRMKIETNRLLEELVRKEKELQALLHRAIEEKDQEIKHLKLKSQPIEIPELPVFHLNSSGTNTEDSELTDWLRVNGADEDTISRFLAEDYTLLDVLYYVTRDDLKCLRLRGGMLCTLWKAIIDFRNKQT
As to the kind of experiment: DSF against ASK1 (selectivity panel of MAPK cascade members). It counts as binding. Conditions: difference between the TAOK2 ΔTm and that of ASK1, DSF. Here is the method: as §1
(§2) The difference between the TAOK2 ΔTm and that of p38 and ASK1 was determined. […] The majority of the other compounds were also preferentially inhibitory toward TAOK2. Of the 13 compounds, SW034538, SW172006 and SW083688 were cross-verified for selectivity by performing a specificity screen against 45 kinases commercially at Eurofins Cerep, Inc. (FIG. 3).

For a further experiment, the target named is p38 (Homo sapiens, UniProt Q16539). As to the kind of experiment: DSF against p38 (selectivity panel of MAPK cascade members). It counts as binding. Conditions: for ΔΔTm (p38): difference between the TAOK2 ΔTm and that of p38, DSF. How it is done:
as §1, §2

Molecules are shown by their SMILES.

p38, sequence (Q16539 whole entry): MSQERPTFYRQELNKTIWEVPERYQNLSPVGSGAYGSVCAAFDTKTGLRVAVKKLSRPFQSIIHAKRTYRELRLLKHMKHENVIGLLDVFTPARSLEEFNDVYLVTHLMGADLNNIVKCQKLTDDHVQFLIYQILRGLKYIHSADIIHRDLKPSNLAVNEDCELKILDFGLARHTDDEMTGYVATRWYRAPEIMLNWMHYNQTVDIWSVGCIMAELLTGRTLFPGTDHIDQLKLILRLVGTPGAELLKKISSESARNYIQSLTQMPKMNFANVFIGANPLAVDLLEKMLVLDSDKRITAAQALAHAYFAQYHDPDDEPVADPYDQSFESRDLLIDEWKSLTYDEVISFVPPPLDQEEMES

What is called IC50 is the midpoint of a concentration-inhibition curve. One may read the ΔTm as the shift of the melting midpoint relative to a reference. On to `Cc1cccc(NC(=S)N/N=C/c2c[nH]c3ccccc23)c1` [SW109820], for which the IC50 on TAOK2 [1] is 1 µM. Besides, the ΔTm on TAOK2 [2] worked out at 0.5 °C.

For `O=C(NCC1COc2ccccc2O1)c1ccc2c(=O)n(Cc3ccco3)c(=S)[nH]c2c1` (stereo not shown) [SW083604], on ASK1, the “ΔΔTm (ASK1)” value stood at 1.1 °C. The IC50 at TAOK2 [1] was 0.6 µM. Besides, the “ΔTm with respect to p38” value at p38 (DSF cross-reactivity with p38) worked out at 0.9 °C. Besides, the “ΔΔTm (p38)” value on p38 worked out at 0.3 °C. On TAOK2 [2], the ΔTm was 1.2 °C.

In the case of `CCc1ccccc1Nc1ncc(-c2sc(NC(C)=O)nc2C)s1` [SW034513], on TAOK2 [1], the half-maximal inhibitory concentration (IC50) was 3 µM. The ΔTm on TAOK2 [2] stood at 0.1 °C.

Take `Cc1ccc(NCCCC(=O)N/N=C/c2cc(Br)cc(Br)c2O)cc1` [SW106178]: the “ΔΔTm (ASK1)” value at ASK1 was found to be 1.2 °C. The half-maximal inhibitory concentration (IC50) at TAOK2 [1] is 6 µM. Further, the “ΔΔTm (p38)” value on p38 was determined as 1.3 °C. Besides, the thermal shift (ΔTm) at TAOK2 [2] is 1.6 °C.
